Experimental data as given in article PMC12417329 (Food Science & Nutrition, 2025).
Values after ≈ are worked out from the molar mass of the structure shown. “Also recorded” adds a separate entry of the source. Where two headings read alike, the source gives them in different places.

Columns and labels:
HPU = details: ref Xiao et al. [2007]; cited from earlier work
H. pylori urease (HPU) [1] = biological target: T1, H. pylori urease (HPU) (Helicobacter pylori, UniProt P69996); test: Urease inhibition test (Berthelot, ammonia at 595 nm); type: biochemical
T1 construct: endogenous in cells; host or cells: Helicobacter pylori ATCC 43504 (extract, method of Matsubara et al. 2003)
T1 sequence (P69996 whole entry): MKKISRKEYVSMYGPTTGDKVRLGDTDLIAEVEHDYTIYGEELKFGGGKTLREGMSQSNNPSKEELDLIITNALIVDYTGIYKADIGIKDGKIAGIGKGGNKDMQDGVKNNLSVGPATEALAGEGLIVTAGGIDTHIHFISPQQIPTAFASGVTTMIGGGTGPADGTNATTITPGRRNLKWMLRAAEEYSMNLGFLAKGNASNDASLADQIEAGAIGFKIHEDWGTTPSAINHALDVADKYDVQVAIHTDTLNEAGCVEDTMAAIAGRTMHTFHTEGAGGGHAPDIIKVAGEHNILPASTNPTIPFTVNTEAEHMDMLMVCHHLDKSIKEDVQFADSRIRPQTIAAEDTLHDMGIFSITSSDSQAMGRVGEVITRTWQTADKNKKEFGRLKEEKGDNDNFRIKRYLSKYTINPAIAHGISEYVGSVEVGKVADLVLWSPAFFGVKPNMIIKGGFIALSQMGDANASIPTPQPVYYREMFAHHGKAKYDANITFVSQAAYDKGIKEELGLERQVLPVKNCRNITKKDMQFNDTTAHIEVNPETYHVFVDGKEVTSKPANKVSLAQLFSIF
T1 sequence (P14916 whole entry, further chain): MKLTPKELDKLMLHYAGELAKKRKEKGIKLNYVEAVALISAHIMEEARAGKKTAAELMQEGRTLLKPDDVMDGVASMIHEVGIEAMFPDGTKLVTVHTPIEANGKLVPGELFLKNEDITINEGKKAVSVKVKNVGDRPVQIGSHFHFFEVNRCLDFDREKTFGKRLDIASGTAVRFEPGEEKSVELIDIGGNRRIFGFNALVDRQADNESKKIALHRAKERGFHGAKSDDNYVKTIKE
Description: (§1) The standard strain H. pylori strains (ATCC 43504) were cultured on Mueller‐Hinton agar supplemented with 5% sheep blood. Bacterial cultures were maintained for 72 h at 37°C in a microaerophilic environment (5% O2, 10% CO2, 85% N2). For urease extraction, bacterial cells were harvested by centrifugation (5000×g, 10 min, 4°C) and subsequently washed three times with phosphate‐buffered saline (pH 7.4). Following turbidity adjustment using McFarland standards, H. pylori urease was prepared via a method established by Matsubara et al. ([2003]).
Urease activity was measured using spectrophotometry. The reaction was initiated by blending a particular amount of enzyme‐containing solution and 150 mM urea in 20 mM HEPES buffer (pH 7.5) at 37°C. Following 20 min, the Berthelot reagent was applied, and the quantity of ammonia produced by the urease‐urea reaction was detected at 595 nm (Wu et al. [2013]). The control group represented the activity of the uninhibited enzyme, which is 100% active. […]
Then 150 mM urea was added, and the reaction was carried out in the dark for 20 min. Afterward, the Berthelot reagent was added, and the quantity of ammonia produced by the urease‐urea reaction was detected at 595 nm. The residual enzyme activity (RA%) was calculated using the formula: RA% = activity with inhibitor/activity without inhibitor × 100%. […]

jack bean urease (JBU) [2] = biological target: T2, jack bean urease (JBU) (Canavalia ensiformis, UniProt P07374); test: biochemical
T2 construct: Jack bean urease (JBU) (Type III, 40.3 U/mg) were offered by Sigma; purchased Sigma Type III, 40.3 U/mg (catalogue number not given)
T2 sequence (P07374 whole entry, looked up): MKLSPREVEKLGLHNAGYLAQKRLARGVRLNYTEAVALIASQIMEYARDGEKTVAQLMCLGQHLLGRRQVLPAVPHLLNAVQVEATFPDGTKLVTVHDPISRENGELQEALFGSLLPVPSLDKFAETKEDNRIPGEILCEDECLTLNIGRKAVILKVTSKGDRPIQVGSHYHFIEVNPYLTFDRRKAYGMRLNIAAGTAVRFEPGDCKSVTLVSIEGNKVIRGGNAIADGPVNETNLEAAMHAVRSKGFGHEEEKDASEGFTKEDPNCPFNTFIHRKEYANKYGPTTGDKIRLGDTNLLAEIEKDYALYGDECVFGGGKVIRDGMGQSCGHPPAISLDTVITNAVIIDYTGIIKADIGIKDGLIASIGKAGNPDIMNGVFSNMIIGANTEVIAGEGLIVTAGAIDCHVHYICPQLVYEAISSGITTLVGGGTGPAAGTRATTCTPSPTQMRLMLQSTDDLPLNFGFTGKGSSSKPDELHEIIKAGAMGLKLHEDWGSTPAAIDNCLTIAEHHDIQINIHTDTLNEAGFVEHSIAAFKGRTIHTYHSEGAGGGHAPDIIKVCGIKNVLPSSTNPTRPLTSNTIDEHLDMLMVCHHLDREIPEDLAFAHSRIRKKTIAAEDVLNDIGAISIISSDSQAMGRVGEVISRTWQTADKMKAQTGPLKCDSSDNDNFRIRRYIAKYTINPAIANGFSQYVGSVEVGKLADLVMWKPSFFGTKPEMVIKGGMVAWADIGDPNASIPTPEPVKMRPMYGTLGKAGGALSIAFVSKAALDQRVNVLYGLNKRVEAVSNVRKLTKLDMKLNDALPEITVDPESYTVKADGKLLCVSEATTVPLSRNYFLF

JBU = details: cited from earlier work
[3] = tested on: Helicobacter pylori strains (ATCC 43504, HP1869, HP1870); test: Minimal inhibitory concentration assay (agar dilution); type: cell-based; details: ATCC43504, 120 h, pH 7.2, 5 days
Description: as §1
After solidification and overnight storage at 4°C to confirm sterility, plates showing no contamination were inoculated with 100 μL of H. pylori suspension (adjusted to McFarland 1.0 standard) and incubated microaerophilically (85% N2, 10% CO2, 5% O2) at 37°C for 5 days.

H. pylori urease (HPU) [4] = biological target: T1, H. pylori urease (HPU); test: Urease inhibition type and kinetics (Lineweaver-Burk plots, progress curves); type: biochemical
Description: (§2) The Lineweaver‐Burk plots were applied to calculate the change in the Michaelis constant (K M) and maximum velocity (V max). […] Additionally, the inhibition constant was derived by secondary replotting of Lineweaver‐Burk plots. All tests were performed in triplicate.
(§3) Enzyme activity in both procedures was measured as outlined in Section 2.4. Subsequently, the curve fitting software was used to fit the data according to the following formula: Pt=VS×t+V0−VS(1−e^−kapp×t)/kapp^−1 where, P(t) is the amount of product accumulated after t minutes of reaction, V 0 is the velocity at the start of the reaction, V S is the velocity at which the reaction reaches equilibrium, and kapp is the apparent velocity constant (Breitenbach and Hausinger [1988]). The experiments were repeated three times.

jack bean urease (JBU) [5] = biological target: T2, jack bean urease (JBU); test: as above; type: biochemical
Description: as §2, §3

H. pylori urease (HPU) [6] = biological target: T1, H. pylori urease (HPU); test: Reactivation of PIC-deactivated urease by GSH; type: biochemical
Description: (§4) After 20 min, half of the reaction solution was removed and added to 1.25 mM GSH solution. Enzyme activity was determined before and after the addition of GSH. After co‐incubation for different periods, the residual enzyme activity in the mixtures was detected as described in Section 2.4.

jack bean urease (JBU) [7] = biological target: T2, jack bean urease (JBU); test: Reactivation of PIC-deactivated urease by GSH; type: biochemical
Description: as §4

[8] = 20 min preincubation at 37°C, 150 mM urea, pH 7.5, read-out: IC50
[9] = Lineweaver-Burk plot, progress curves
[10] = PIC-inactivated urease after adding 1.25 mM GSH
[11] = co-incubation with 1.5 mM PIC for 20 min

## O=c1c(-c2ccc(O)cc2)coc2c(O)c(O)ccc12 [7,8,4′‐trihydroxyisoflavone]
HPU
  IC50: 140 µM

## CC(=O)NO [AHA, Acetohydroxamic acid, reference compound]
H. pylori urease (HPU) [1]; [8]
  IC50: 80 µM
Jack bean urease (JBU) [2]; [8]
  IC50: 20 µM

## O=C(O)[C@H]1O[C@@H](Oc2cc3oc(-c4ccccc4)cc(=O)c3c(O)c2O)[C@H](O)[C@@H](O)[C@@H]1O [Baicalin]
JBU; ref Tan et al. [2013], Yu et al. [2015]
  IC50: 2740 ± 510 µM

## Oc1cc(O)cc(/C=C/c2ccc(O)c(O)c2)c1 [PIC, Piceatannol]
[3]; pH 7.2, clinical strain HP1869, Mueller-Hinton agar
  MIC: 100 µg/mL (≈ 409 µM)
[3]; pH 7.2, clinical strain HP1870, Mueller-Hinton agar
  MIC: 100 µg/mL (≈ 409 µM)
[3]; pH 7.2, strain ATCC 43504 (standard strain), Mueller-Hinton agar
  MIC: 150 µg/mL (≈ 614 µM)
H. pylori urease (HPU) [1]
  IC50: 670 ± 20 µM
Jack bean urease (JBU) [2]
  IC50: 470 ± 10 µM
H. pylori urease (HPU) [4]
  Ki: 630 ± 20 µM
H. pylori urease (HPU) [4]; [9]
  inhibition type: slow‐binding, mixed inhibitor; also recorded: mixed‐type inhibitor; also recorded: slow‐binding inhibition
H. pylori urease (HPU) [4]; secondary replot of Lineweaver-Burk intercepts
  inhibitory constant Kis: 0.94 ± 0.01 mM
Jack bean urease (JBU) [5]
  Ki: 340 ± 50 µM
Jack bean urease (JBU) [5]; [9]
  inhibition type: slow‐binding, non‐competitive inhibitor; also recorded: non‐competitive type; also recorded: slow‐binding inhibition
H. pylori urease (HPU) [6]; GSH reactivation
  reversibility of inactivation: reversible
H. pylori urease (HPU) [6]; [10]
  urease activity restored, of the initial activity: about 60%
H. pylori urease (HPU) [6]; [11]
  initial activity lost: approximately 80%
Jack bean urease (JBU) [7]; GSH reactivation
  reversibility of inactivation: reversible
Jack bean urease (JBU) [7]; [10]
  urease activity restored, of the initial activity: about 60%
Jack bean urease (JBU) [7]; [11]
  initial activity lost: approximately 80%

## O=C(O)[C@H]1O[C@@H](Oc2cc3oc(-c4ccc(O)cc4)cc(=O)c3c(O)c2O)[C@H](O)[C@@H](O)[C@@H]1O [scutellarin]
JBU; ref Wu et al. [2013]
  IC50: 1350 ± 150 µM
